# Patent US9518107B2, “Pharmaceutical compositions containing polypeptides derived from α-1 antitrypsin and methods of use thereof” (YISSUM RESEARCH DEVELOPMENT COMPANY OF THE HEBREW …, priority 2010, dated 2016)
# Experiments:
# [1] = system: female MRL/lpr mice; assay: Spontaneous lupus-like syndrome in MRL/lpr mice (Systemic Lupus Erythematosus model); assay type: in vivo
# Protocol: MRL/lpr mice develop a lupus-like syndrome spontaneously. UBE (SEQ ID NO:2) (1 μg/kg) was administered to female MRL/lpr mice thrice a week, starting at age of 12 weeks. Urine was obtained by spontaneous urination and the levels of protein (mg/dl) and erythrocytes (cells/dl) in the urine were evaluated throughout the treatment period (4 weeks) using commercial sticks.
# In order to determine the levels of anti-dsDNA antibodies, blood was obtained by cardiac puncture of the MRL/lpr mice after 4 weeks of UBE treatment, and the serum levels of anti-dsDNA antibodies were evaluated using a commercial ELISA kit.
# Serum levels of anti-dsDNA antibodies were determined by ELISA with the aid of a commercial kit (Euroimmun, Lubeck, Germany) following the manufacturer's instructions and detection antibodies were purchased for use with same (Bethyl Laboratories, Montgomery, Tex., USA).
# Quantitative histopathology analysis of the kidneys was also performed. The kidneys of the mice after 4 weeks of UBE treatment were removed, fixed in formalin, sliced, and stained by H&E and by periodic acid […] stain. Representative histophathologies of the glomeruli and tubulointerstitial areas in control versus UBE treated mice is shown FIGS. 7C and 7D, versus 7E and 7F at 2× and 20×, respectively. The quantitative histopathology analysis is presented in FIG. 7A and FIG. 7B, respectively.
# To evaluate the effect of UBE on lymphocyte function in MRL/lpr mice, peripheral lymph nodes and spleen cells were isolated from the control and UBE-treated mice and subjected to FACS analysis probing for CD4, CD8 and B220 marker expression (FIG. 8). Peripheral lymph node cells were positively selected for CD3 expression and the percent of CD3+ cells, which were negative for CD4− and CD8− expression was evaluated. Representative results from control and UBE treated animals are shown in FIGS. 8A and 8B, respectively. […] Spleen cells were similarly evaluated and representative results from control and UBE treated animals are shown in FIGS. 8C and 8D, respectively.
# In parallel, peripheral lymph node cells were positively selected for B220+ expression. Representative results from control and UBE treated animals are shown in FIGS. 8G and 8H, respectively. […] Spleen cells were similarly evaluated and representative results from control and UBE treated animals are shown in FIGS. 8I and 8J, respectively.
# [2] = system: male MRL/lpr mice; assay: Advanced stage of Systemic Lupus Erythematosus in MRL/lpr mice; assay type: in vivo; conditions: 1 μg/kg thrice a week from age of 22 weeks, 22 days; FIG. 10
# Protocol: UBE (SEQ ID NO: 2; 1 μg/kg) was administered to male MRL/lpr mice thrice a week, starting at age of 22 weeks. At this age the mice are acutely affected and show a high level of proteinuria. Urine was obtained by spontaneous urination and the animals' urinary protein levels (mg/dl) were evaluated throughout the treatment period (22 days) using a commercial stick.
# [3] = system: arthritic mice; assay: Collagen type II induced arthritis, joint swelling; assay type: in vivo; conditions: 1 μg/kg thrice a week, from five days after second immunization; FIG. 16
# Protocol: Chick collagen type II (2.0 mg) was incubated overnight in 0.01 M acetic acid (0.9 ml) at 4° C. The resulting solution was emulsified with equal volume (1.0 ml) of […] Freund's Adjuvant containing 5.0 mg heat-killed Mycobacterium tuberculosis. Thereafter, the animal was injected intradermally in the tail base with 100 μl of the emulsion and an additional immunization was repeated 21 days later. Five days later, UBE or UBE1 polypeptide were administered (1 μg/kg thrice a week). The animals were evaluated for the difference in joint thickness (mm) between the indicated time intervals and prior to immunization.
# [4] = system: T-lymphocytes; assay: Lymphocyte proliferation in vitro (viable cell count, trypan blue); assay type: cell-based, female C57B1/6 mice; conditions: 96 hours incubation; FIG. 17
# Protocol: T-lymphocytes were harvested from lymph nodes of female C57B1/6 mice by standard methodology and seeded (1.3×10^6 cells/ml) in 96 well plate […]. Thereafter, UBE was added to the culture at the indicated concentrations and incubated for 96 hours (6% CO2, 37° C.). The medium containing the polypeptide was replaced after 48 hours of incubation. Viable cells (trypan blue staining) were counted a light microscope.
# [5] = system: HaCaT keratinocytes; assay: HaCaT keratinocyte proliferation (MTT assay); assay type: cell-based; conditions: FIG. 18
# Protocol: Cells (1.6×10^4/ml) were seeded (100 μl) in culture medium in 96 well plate. Twenty four hours later UBE was added at the indicated concentrations. Cell viability was determined by the MTT assay.
# [6] = system: peritoneal macrophages; assay: Oxidative burst of peritoneal macrophages (luminol luminescence, phorbol myristate acetate); assay type: cell-based, female C57BL/6 mice; conditions: 1 μg/ml UBE; FIG. 19
# Protocol: Macrophages were harvested by peritoneal lavage of female C57BL/6 mice i.p. injected with thioglycolate. 0.2 ml cells (3×10^5/ml), luminol (200 μM), horseradish peroxidase (1.0 unit/ml) and UBE were suspended in Hank's balanced salt solution (HBSS) (final concentrations of the peptide in the reaction mixture are indicated in the figure). The reaction started by the addition of 1 μM phorbol myristate acetate. The reaction was performed in a 96-well plate. Luminescence was measured by Tecan spectrofluoro Plus.
# [7] = system: Female C57B1/6 mice; assay: LPS induced sepsis in mice, UBE i.v.; assay type: in vivo; conditions: i.v. within 1 hour after LPS 1.2 mg/mouse; 48 hours after LPS; 0.1 and 1.0 μg/kg; FIG. 20B
# Protocol: Female C57B1/6 mice 7-8 weeks of age were injected i.p with LPS 1.2 mg/mouse. Thereafter (within 1 hour) UBE peptide as depicted by SEQ ID NO: 2 was injected i.v. (100 μl) at different doses; control group received PBS. Survival of mice was monitored. n=10 for control group, n=9 for each UBE-treated group.
# [8] = system: mice; assay: LPS induced sepsis in mice, second protocol, UBE i.p.; assay type: in vivo; conditions: for survival of the mice treated: repeated after 24 hours, 50 hours post LPS injection, FIG. 20A
# Protocol: In a second protocol, mice were injected i.p. with LPS (dissolved in saline solution) at a dose of 1.2 mg/mouse, followed by i.p. injection of UBE at a dose of 1.0 or 10.0 μg/kg after 30 minutes. UBE treatment was repeated after 24 hours (n=4 for UBE-treated groups and n=5 for controls).
# [9] = system: Female NZBW/F1 mice; assay: Spontaneous lupus-like syndrome in NZBW/F1 mice (second SLE model); assay type: in vivo; conditions: FIG. 11B
# [10] = after 4 weeks of UBE treatment, 1 μg/kg, FIG. 7
sequence,measurement,setting,value
"SMPPIVRFDHPFLFIIFEEHTQSPLFVGKVVDPTHK (listed as Mus musculus) [UBE, 36-mer peptide corresponding to residues 378-413 of Mus musculus alpha-1-antitrypsin (serpin a1c)]",proteinuria (urinary protein),"[1]; 1 μg/kg thrice a week from age of 12 weeks, 4 weeks, FIG. 4",significant reduction
same,urinary microhematuria,"[1]; 1 μg/kg thrice a week from age of 12 weeks, 4 weeks, FIG. 5",significant reduction
same,"anti-dsDNA antibodies in the blood (serum, ELISA)","[1]; after 4 weeks of UBE treatment, 1 μg/kg, FIG. 6",significant reduction
same,pathological score of the glomeruli (kidney histopathology),[1]; [10],significant reduction
same,pathological score of the tubulointerstitial areas (kidney histopathology),[1]; [10],significant reduction
same,"percent of B220+ cells, FACS",[1]; peripheral lymph nodes,dramatically reduced
same,"double negative CD4−CD8− cells (expressed as percent CD3+), FACS","[1]; peripheral lymph nodes, FIG. 8E",dramatically reduced
same,"percent of B220+ cells, FACS",[1]; spleen cells,dramatically reduced
same,"double negative CD4−CD8− cells, FACS","[1]; spleen cells, FIG. 8F",dramatically reduced
same,proteinuria (urinary protein),[2],significant reduction
same,joint swelling (difference in joint thickness),[3],reduction in joint swelling
same,concentration of maximal effect on T cell proliferation,[4],1 ng/mL
same,"effect on cultured keratinocyte proliferation (cell viability, MTT)",[5],anti-proliferative effect
same,oxidative burst of peritoneal macrophages (luminescence),[6],suppressed
same,reduction of LPS-induced mortality,[7],33%
same,survival of the mice treated,[8]; UBE 1.0 μg/kg i.p. 30 minutes after LPS,approximately 50%
same,survival of the mice treated,[8]; UBE 10 μg/kg i.p. 30 minutes after LPS,approximately 50%
same,survival time as compared to controls,[8]; both UBE dosages (1.0 and 10 μg/kg i.p.),significantly prolonged survival
same,proteinuria,[9]; UBE 1 μg/kg,reduced proteinuria in a significant manner
same,proteinuria,[9]; UBE 3 μg/kg,reduced proteinuria in a significant manner
